# Experimental data as given in ChEMBL document CHEMBL1201862, “PubChem BioAssay data set” (2004).
#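 Step 1: Grow cells in 96-well plates. Step 2: Expose to compound for 48 hours at 5 concentrations. Step 3: Interpolate endpoints linearly; if unreached, use highest concentration. The concentration for 50% growth inhibition is given as GI50.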 The source made the active and inactive calls. No stated cut-off is given here; in the data, active = GI50 up to about 1.1 µM and inactive = higher.
# Key:
# Assay in all cases: NCI tumour cell line growth inhibition, 48 h
# SNB-19 = system: SNB-19
# UACC-257 = system: UACC-257
# SNB-75 = system: SNB-75
# SW-620 = system: SW-620
# U-251 = system: U-251
# 786-0 = system: 786-0
# SF-539 = system: SF-539
# DMS-273 = system: DMS-273
# NCI-H460 = system: NCI-H460
# RPMI-8226 = system: RPMI-8226
# TK-10 = system: TK-10
# SR = system: SR
# SK-MEL-28 = system: SK-MEL-28
# SN12C = system: SN12C
# EKVX = system: EKVX
# OVCAR-3 = system: OVCAR-3
# NCI-H522 = system: NCI-H522
# CAKI-1 = system: CAKI-1
# NCI-H23 = system: NCI-H23
# NCI-H226 = system: NCI-H226
# MOLT-4 = system: MOLT-4
# HL-60 = system: HL-60
# K562 = system: K562
# ACHN = system: ACHN
# HT-29 = system: HT-29
# LXFL 529 = system: LXFL 529
# KM-20L2 = system: KM-20L2
# IGROV-1 = system: IGROV-1
# LOX IMVI = system: LOX IMVI
# SF-268 = system: SF-268
# SK-OV-3 = system: SK-OV-3
# M19-MEL = system: M19-MEL
# HCC 2998 = system: HCC 2998
# M14 = system: M14
# SK-MEL-5 = system: SK-MEL-5
# A549 = system: A549
# SF-295 = system: SF-295
# HOP-62 = system: HOP-62
# UACC-62 = system: UACC-62
# RXF 393 = system: RXF 393
# COLO 205 = system: COLO 205
# OVCAR-8 = system: OVCAR-8
# OVCAR-5 = system: OVCAR-5
# HCT-116 = system: HCT-116
# SNB-78 = system: SNB-78
# HCT-15 = system: HCT-15
# Malme-3M = system: Malme-3M
# UO-31 = system: UO-31
# CCRF-CEM = system: CCRF-CEM
# DLD-1 = system: DLD-1
# SK-MEL-2 = system: SK-MEL-2
# HOP-92 = system: HOP-92
# KM12 = system: KM12
# DMS-114 = system: DMS-114
# OVCAR-4 = system: OVCAR-4
# XF498 = system: XF498
# A498 = system: A498
compound,measurement,setting,value
C=CCn1c(=S)sc2c(C(=O)OCC)c3c(C)cc(C)cn3c2c1=O,GI50,SNB-19,> 100 µM (inactive)
same,GI50,UACC-257,> 100 µM (inactive)
same,GI50,SNB-75,45.4 µM (inactive)
same,GI50,SW-620,> 100 µM (inactive)
same,GI50,U-251,75.9 µM (inactive)
same,GI50,786-0,61.1 µM (inactive)
same,GI50,SF-539,80.5 µM (inactive)
same,GI50,DMS-273,> 100 µM (inactive)
same,GI50,NCI-H460,> 100 µM (inactive)
same,GI50,RPMI-8226,> 100 µM (inactive)
same,GI50,TK-10,> 100 µM (inactive)
same,GI50,SR,> 100 µM (inactive)
same,GI50,SK-MEL-28,> 100 µM (inactive)
same,GI50,SN12C,> 100 µM (inactive)
same,GI50,EKVX,> 100 µM (inactive)
same,GI50,OVCAR-3,> 100 µM (inactive)
same,GI50,NCI-H522,65.6 µM (inactive)
same,GI50,CAKI-1,> 100 µM (inactive)
same,GI50,NCI-H23,> 100 µM (inactive)
same,GI50,NCI-H226,> 100 µM (inactive)
same,GI50,MOLT-4,> 100 µM (inactive)
same,GI50,HL-60,> 100 µM (inactive)
same,GI50,K562,> 100 µM (inactive)
same,GI50,ACHN,> 100 µM (inactive)
same,GI50,HT-29,> 100 µM (inactive)
same,GI50,LXFL 529,> 100 µM (inactive)
same,GI50,KM-20L2,> 100 µM (inactive)
same,GI50,IGROV-1,> 100 µM (inactive)
same,GI50,LOX IMVI,> 100 µM (inactive)
same,GI50,SF-268,67.5 µM (inactive)
same,GI50,SK-OV-3,90.8 µM (inactive)
same,GI50,M19-MEL,> 100 µM (inactive)
same,GI50,HCC 2998,> 100 µM (inactive)
same,GI50,M14,> 100 µM (inactive)
same,GI50,SK-MEL-5,> 100 µM (inactive)
same,GI50,A549,> 100 µM (inactive)
same,GI50,SF-295,86.7 µM (inactive)
same,GI50,HOP-62,> 100 µM (inactive)
same,GI50,UACC-62,> 100 µM (inactive)
same,GI50,RXF 393,> 100 µM (inactive)
same,GI50,COLO 205,> 100 µM (inactive)
same,GI50,OVCAR-8,> 100 µM (inactive)
same,GI50,OVCAR-5,> 100 µM (inactive)
same,GI50,HCT-116,> 100 µM (inactive)
same,GI50,SNB-78,> 100 µM (inactive)
same,GI50,HCT-15,> 100 µM
same,GI50,Malme-3M,> 100 µM (inactive)
same,GI50,UO-31,> 100 µM (inactive)
same,GI50,CCRF-CEM,> 100 µM (inactive)
same,GI50,DLD-1,> 100 µM (inactive)
same,GI50,SK-MEL-2,> 100 µM (inactive)
Cc1cc(CC(O)c2ccc(Cl)c(Cl)c2)nc(O)n1 (configuration not stated),GI50,SNB-19,30.5 µM (inactive)
same,GI50,HOP-92,18 µM (inactive)
same,GI50,UACC-257,> 100 µM (inactive)
same,GI50,SNB-75,17.7 µM (inactive)
same,GI50,SW-620,36.1 µM (inactive)
same,GI50,U-251,29.1 µM (inactive)
same,GI50,786-0,17.6 µM (inactive)
same,GI50,NCI-H460,34.8 µM (inactive)
same,GI50,RPMI-8226,71.9 µM (inactive)
same,GI50,TK-10,86.9 µM (inactive)
same,GI50,KM12,36.4 µM (inactive)
same,GI50,SR,24.7 µM (inactive)
same,GI50,SK-MEL-28,> 100 µM (inactive)
same,GI50,SN12C,86.3 µM (inactive)
same,GI50,DMS-114,8.49 µM (inactive)
same,GI50,EKVX,29.8 µM (inactive)
same,GI50,OVCAR-3,32.2 µM (inactive)
same,GI50,NCI-H522,20.2 µM (inactive)
same,GI50,CAKI-1,21.7 µM (inactive)
same,GI50,NCI-H23,27.5 µM (inactive)
same,GI50,NCI-H226,26.9 µM (inactive)
same,GI50,OVCAR-4,48.9 µM (inactive)
same,GI50,MOLT-4,> 10 µM (inactive)
same,GI50,HL-60,31 µM (inactive)
same,GI50,XF498,18.4 µM (inactive)
same,GI50,K562,50.1 µM (inactive)
same,GI50,ACHN,31.3 µM (inactive)
same,GI50,HT-29,46.9 µM (inactive)
same,GI50,LXFL 529,20.9 µM (inactive)
same,GI50,KM-20L2,51.1 µM (inactive)
same,GI50,SF-268,38.5 µM (inactive)
same,GI50,SK-OV-3,35.2 µM (inactive)
same,GI50,M19-MEL,58.6 µM (inactive)
same,GI50,M14,32.8 µM (inactive)
same,GI50,SK-MEL-5,57.4 µM (inactive)
same,GI50,A549,21.8 µM (inactive)
same,GI50,SF-295,30.3 µM (inactive)
same,GI50,A498,53.8 µM (inactive)
same,GI50,HOP-62,25.6 µM (inactive)
same,GI50,UACC-62,50.9 µM (inactive)
same,GI50,COLO 205,31 µM (inactive)
same,GI50,OVCAR-8,46.1 µM (inactive)
same,GI50,OVCAR-5,69 µM (inactive)
same,GI50,HCT-116,19.6 µM (inactive)
same,GI50,SNB-78,76.2 µM (inactive)
same,GI50,HCT-15,30.7 µM
same,GI50,Malme-3M,81.8 µM (inactive)
same,GI50,UO-31,54.1 µM (inactive)
same,GI50,CCRF-CEM,48.8 µM (inactive)
same,GI50,DLD-1,18.7 µM (inactive)
same,GI50,SK-MEL-2,61.7 µM (inactive)
